In patent US20250282795A1, “EGFR Inhibitors in cancer treatment” (Celyn Therapeutics, Inc., priority 2022, published 2025):
Where two headings read alike, the source gives them in different places.

Columns and labels:
[1] = DCM
[2] = Cellular growth inhibition assay (CellTiter-Glo), Ba/F3 (Empty vector); assay type: cell-based; conditions: mouse, Ba/F3 cells with empty vector; Ba/F3 (Empty vector) with 10 ng/ml rmIL-3, 3 days of incubation
Outline: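 Ba/F3 cells carrying an empty vector were plated in 384-well black clear-bottom plates at 4000 cells per well in 45 μl RPMI containing FBS and 10 ng/ml rmIL-3. Compounds diluted from DMSO stocks were added as 5 μl of 10× solution, giving 0.2% DMSO. After 3 days, CellTiter-Glo was added and luminescence measured.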

Ba/F3 (D770_N771insSVD) = experiment: Cellular growth inhibition assay (CellTiter-Glo), Ba/F3 (D770_N771insSVD); assay type: cell-based; conditions: Mus musculus, BaF3, 72 h; 3 days of incubation; read-out: Ba/F3 (D770_N771 insSVD) CC50
Outline: (§1)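 Ba/F3 cells expressing the EGFR variants were seeded at 4000 cells/well in RPMI with FBS, with 10 ng/ml rhEGF added for the wild-type line, and treated with compound at 0.2% final DMSO. Viability was read by CellTiter-Glo luminescence after 3 days.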

Ba/F3 (L858R + T790M) = experiment: Cellular growth inhibition assay (CellTiter-Glo), Ba/F3 (L858R+T790M); assay type: cell-based; conditions: Mus musculus, BaF3, 72 h; 3 days of incubation
Outline: as §1

EGFR (D770_N771insNPG) = EGFR (D770_N771insNPG) (Homo sapiens (Human), UniProt P00533, INS770NPG); experiment: Potency of EGFR (D770_N771insNPG) enzymatic activity inhibition (ADP-Glo luminescence); assay type: biochemical; conditions: recombinant EGFR (D770_N771insNPG) 1.5 nM, Poly(Glu, Tyr) substrate, ATP, 1 h at rt
Sequence of EGFR (D770_N771insNPG) (P00533 other isoform, or with tags, fused parts or gaps del 1-694/ins NPG behind 770 limits assumed): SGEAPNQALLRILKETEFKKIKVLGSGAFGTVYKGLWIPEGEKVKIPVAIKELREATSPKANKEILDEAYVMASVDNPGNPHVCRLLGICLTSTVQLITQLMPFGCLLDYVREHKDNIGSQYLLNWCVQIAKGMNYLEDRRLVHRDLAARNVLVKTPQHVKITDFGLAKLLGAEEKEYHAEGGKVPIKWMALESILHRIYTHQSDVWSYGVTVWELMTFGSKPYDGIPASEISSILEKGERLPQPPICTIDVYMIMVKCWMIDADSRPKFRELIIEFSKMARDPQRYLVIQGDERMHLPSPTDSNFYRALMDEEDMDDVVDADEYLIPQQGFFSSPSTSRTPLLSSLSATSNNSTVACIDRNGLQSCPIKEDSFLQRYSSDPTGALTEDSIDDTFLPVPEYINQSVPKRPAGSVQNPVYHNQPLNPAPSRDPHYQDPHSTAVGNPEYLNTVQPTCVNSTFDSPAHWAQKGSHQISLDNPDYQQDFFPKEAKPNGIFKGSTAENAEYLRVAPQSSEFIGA
Experimental: Example B. Primary Assay Used to Determine Potency of EGFR (D770_N771insNPG) Enzymatic Activity Inhibition
Compounds activity was determined using recombinant EGFR (D770 N771insNPG) protein (SignalChem, #E10-132GG-10) and Poly(Glu, Tyr) substrate (Sigma-Aldrich, #P0275) in an in vitro enzymatic reaction. The enzymatic assay used to determine activity was a Luminescence assay using a Microplate Reader ClarioStar Plus. The enzymatic reaction was carried out in assay buffer (40 mM TRIS-HCl pH 7.4-7.6, 20 mM MgCl2, 2.5 mM MnCl2, 0.05 mM DTT, 0.1 mg/ml BSA). The compounds were dispensed on a 384 well Diamond Well Plate (Axigen, Cat #P-384-120SQ-C—S) using the Biomek FX liquid handling system at 80× solutions of compounds in DMSO. 2× Protein-Substrate mix (final concentration 1.5 nM of EGFR (D770_N771insNPG) and 50 ng/μl of Poly(Glu, Tyr)) was prepared in 1× Assay buffer and 4 µl of mixture per well was added into 384w white Reaction plate with NBS (Coming, Cat #4513). 4 μl of Poly(Glu, Tyr) substrate w/o EGFR in 1× buffer was used for negative control. Plates were centrifuged for 1 min at 200 g. Next step the Compounds were added to Reaction plate using Biomek station via following steps: 1 μl of 80× compounds (in DMSO) were mixed thoroughly with 39 μl of 2× 10 μM ATP in Assay Buffer, then 4 μl of this mixture was added to Reaction plate with 4 μl of Protein-Substrate mix. Plates were centrifuged for 1 min at 200 g and incubated for 1 h at rt. Next 4 μL of ADP-Glo reagent (Promega, ADP-Glo™ Kinase Assay, Cat #V9102) per well was added. Plates were incubated for 30 min at rt. Then 8 μL of Kinase detection reagent (Promega, ADP-Glo™ Kinase Assay, Cat #V9102) per well was added and the Luminescence was measured using Microplate Reader. The % inhibition was then used to calculate the EC50 values. The values of EC50 shown as a letters A-E, where: A<0.001 μM; 0.001 μM<B<0.005 μM; 0.005 μM<C<0.01 μM; 0.01<D<0.05 μM; E>0.05.

Ba/F3 (EGFRwt) = experiment: Cellular growth inhibition assay (CellTiter-Glo), Ba/F3 (EGFRwt); assay type: cell-based; conditions: Mus musculus, BaF3, 72 h; Ba/F3 (Wild type) with 10 ng/ml rhEGF, 3 days of incubation
Experimental: Example E. Cellular Growth Inhibition Assay
Ba/F3(Empty vector) (Signosis), Ba/F3(Wild type) (Signosis), Ba/F3(L^858R+T790M) (Signosis), Ba/F3(A767_dupASV) (Signosis), Ba/F3(D770_N771insSVD) (Signosis), Ba/F3(H773_V774insNPH) (Signosis) were seeded at a density of 4000 cells per well in a CellBIND® 384-well Flat Clear Bottom Black Polystyrene Microplates (Coming, USA, Cat #3770) in 45 μl total volume of RPMI (PanEco, Cat #C330, Russia) with […] (HyClone, Cat #SV30160.03) and with 10 ng/ml rmIL-3 (RD systems, USA, Cat #403-ML-025) (for BaBF3(Empty vector)) and with 10 ng/ml rhEGF (ThermoFisher, USA, Cat #PHG0311L) (for BaCF3(Wild type)). 500× compounds solutions in DMSO (Sigma Cat #D2650) were prepared into Cmpnds plate (DiamondWell Plate, Axigen, Cat #P-384-120SQ-C—S) and DMSO only control was included. 1.l of 500× compounds (Cmpnds plate) was added to 49 µl of culture medium into Dilution plate (Diamond Well Plate, Axigen, Cat #P-384-120SQ-C—S), mixed and then 5 μl of 10× compounds solutions were transferred to cells followed by centrifugation at 100 g for 1 min. Final DMSO concentration was 0.2% o. After 3 days of incubation 10.l of CellTiter-Glo (Promega, CAT #G7572) were added to the cells, plate was centrifuged at 100 g for 1 min and luminescence signal was measured using Microplate Reader (CLARIOStar).

Ba/F3 (A767_dupASV) = experiment: Cellular growth inhibition assay (CellTiter-Glo), Ba/F3 (A767_dupASV); assay type: cell-based; conditions: Mus musculus, BaF3, 72 h; 3 days of incubation; read-out: Ba/F3 (A767_dup ASV) CC50
Outline: as §1

EGFR (WT) = EGFR (WT) (Homo sapiens (Human), UniProt P00533); experiment: Potency of EGFR enzymatic activity inhibition (WT) (ADP-Glo luminescence); assay type: biochemical; conditions: recombinant EGFR (WT) 4 nM, Poly(Glu, Tyr) substrate, ATP, 1 h at rt
Sequence of EGFR (WT) (P00533 25-1210): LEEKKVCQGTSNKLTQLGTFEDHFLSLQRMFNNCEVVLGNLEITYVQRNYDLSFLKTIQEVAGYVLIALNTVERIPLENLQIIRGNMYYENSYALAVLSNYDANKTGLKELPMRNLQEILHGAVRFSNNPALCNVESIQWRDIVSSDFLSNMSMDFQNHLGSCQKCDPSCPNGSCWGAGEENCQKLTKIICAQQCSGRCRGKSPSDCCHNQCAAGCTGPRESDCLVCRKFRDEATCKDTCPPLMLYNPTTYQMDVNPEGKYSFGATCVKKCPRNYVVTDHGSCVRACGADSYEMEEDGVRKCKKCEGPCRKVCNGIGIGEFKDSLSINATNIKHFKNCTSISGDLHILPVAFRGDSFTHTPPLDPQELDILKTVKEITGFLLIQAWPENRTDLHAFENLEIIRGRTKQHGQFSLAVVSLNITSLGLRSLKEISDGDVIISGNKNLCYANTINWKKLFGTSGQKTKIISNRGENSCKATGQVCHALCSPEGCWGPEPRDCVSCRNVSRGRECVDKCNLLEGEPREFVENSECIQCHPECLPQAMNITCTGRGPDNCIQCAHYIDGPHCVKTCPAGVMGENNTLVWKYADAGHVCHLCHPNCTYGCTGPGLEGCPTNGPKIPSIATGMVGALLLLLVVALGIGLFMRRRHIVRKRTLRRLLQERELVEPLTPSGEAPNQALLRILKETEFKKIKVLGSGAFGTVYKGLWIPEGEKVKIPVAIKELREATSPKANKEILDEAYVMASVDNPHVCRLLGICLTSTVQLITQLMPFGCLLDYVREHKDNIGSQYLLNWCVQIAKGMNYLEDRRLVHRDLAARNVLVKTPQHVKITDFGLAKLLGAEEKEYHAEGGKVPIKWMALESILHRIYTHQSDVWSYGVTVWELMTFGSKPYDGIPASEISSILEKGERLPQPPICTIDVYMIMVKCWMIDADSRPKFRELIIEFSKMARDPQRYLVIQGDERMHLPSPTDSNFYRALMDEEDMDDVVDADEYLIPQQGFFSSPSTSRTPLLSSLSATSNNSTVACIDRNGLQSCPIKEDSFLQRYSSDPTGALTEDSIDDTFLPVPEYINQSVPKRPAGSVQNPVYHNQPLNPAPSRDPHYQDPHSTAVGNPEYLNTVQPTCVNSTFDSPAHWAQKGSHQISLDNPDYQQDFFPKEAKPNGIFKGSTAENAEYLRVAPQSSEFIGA
Experimental: Example D. Primary Assay Used to Determine Potency of EGFR enzymatic activity Inhibition (WT)
Compound activity was determined using recombinant EGFR protein (SignalChem, #E10-112G-10) and Poly(Glu, Tyr) substrate (Sigma-Aldrich, #P0275) in an in vitro enzymatic reaction. The enzymatic assay used to determine activity was a Luminescence assay using a Microplate Reader ClarioStar Plus. The enzymatic reaction was carried out in assay buffer (40 mM TRIS-HCl pH 7.4-7.6, 20 mM MgCl2, 2.5 mM MnCl2, 0.05 mM DTT, 0.1 mg/ml BSA). The compounds were dispensed on a 384 well Diamond Well Plate (Axigen, Cat #P-384-120SQ-C—S) using the Biomek FX liquid handling system at 80× solutions of compounds in DMSO. 2× Protein-Substrate mix (final concentration 4 nM of EGFR and 50 ng/μl of Poly(Glu, Tyr)) was prepared in 1× Assay buffer and 4 μl of mixture per well was added into 384w white Reaction plate with NBS (Coming, Cat #4513). 4 μl of Poly(Glu, Tyr) substrate w/o EGFR in 1× buffer was used for negative control. Plates were centrifuged for 1 min at 200 g. Next step the Compounds were added to Reaction plate using Biomek station via following steps: 1 μl of 80× compounds (in DMSO) were mixed thoroughly with 39 μl of 2× 10 μM ATP in Assay Buffer, then 4 μl of this mixture was added to Reaction plate with 4 μl of Protein-Substrate mix. Plates were centrifuged for 1 min at 200 g and incubated for 1 h at rt. Next 4 μL of ADP-Glo reagent (Promega, ADP-Glo™ Kinase Assay, Cat #V9102) per well was added. Plates were incubated for 30 min at rt. Then 8 μL of Kinase detection reagent (Promega, ADP-Glo™ Kinase Assay, Cat #V9102) per well was added and the Luminescence was measured using Microplate Reader. The % inhibition was then used to calculate the EC50 values. The results for certain compounds are presented in the Table D. The values of EC50 shown as a letters A-E, where: A<0.001 μM; 0.001 μM<B<0.005 μM; 0.005 μM<C<

Ba/F3 (H773_V774insSVD) = experiment: Cellular growth inhibition assay (CellTiter-Glo), Ba/F3 (H773_V774insSVD); assay type: cell-based; conditions: Mus musculus, BaF3, 72 h; 3 days of incubation; read-out: Ba/F3 (H773_V774 insSVD) CC50
[3] = rcm bond, 14-membered ring, Grubbs II (12 mol%), 10.0 mM, 50.0 °C

Row | EC50 (EGFR (D770_N771insNPG)) | EC50 (EGFR (WT)) | Molecule | CC50 at 3 days [2] | CC50 (Ba/F3 (D770_N771insSVD)) | CC50 (Ba/F3 (L858R + T790M)) | CC50 (Ba/F3 (EGFRwt)) | CC50 (Ba/F3 (A767_dupASV)) | CC50 (Ba/F3 (H773_V774insSVD)) | also measured
1 |  |  | COc1c(F)cccc1Nc1c2[nH]c3c1C(=O)NCC3CC=CCCOc1cnccc1-2 (stereo not drawn) |  |  |  |  |  |  | ring closure, isolated yield ([1]; from C=CCCOc1cnccc1-c1[nH]c2c(c1Nc1cccc(F)c1OC)C(=O)NCC2CC=C, rcm bond, 12-membered ring, Grubbs II (15 mol%), 10.0 mM, 50.0 °C): 71%
2 |  |  | 19-[(3-Fluoro-2-methoxyphenyl)amino]-7,8,10,11,12,12a,13,14-octahydro-6H-7,9-methano-16,18-methenodipyrido[3,4-b:4′,3′-f][1,5,11]oxadiazacyclotetradecin-15(17H)-one |  |  |  |  |  |  | ring closure, isolated yield ([1]; amine bond, 14-membered ring, STAB/DIEA, 190.0 mM, 25.0 °C): 36%
3 |  |  | 29-(3-Fluoro-2-methoxyanilino)-18,21-dioxa-1,6,10,15,24-pentaazapentacyclo[22.2.2.1^8,110^4,9.0^12,17]nonacosa-8,11(29),12(17),13,15-pentaene-2,7-dione |  |  |  |  |  |  | ring closure, yield after HPLC (amide bond, 18-membered ring, EDCI, DMF, 43.0 mM, 25.0 °C): 16%
4 | 1 to 5 nM | 1 to 5 nM | COc1c(F)cccc1Nc1c2[nH]c3c1C(=O)NC[C@H]3CCCCOCCOc1cnccc1-2 [Compound 114, (16R)-23-[(3-Fluoro-2-methoxyphenyl)amino]-8,11-dioxa-5,18,22-triazatetracyclo[18.2.1.0^2,7.0^16,21]tricosa-1(23),2,4,6,20-pentaen-19-one] | > 10 µM | 10 to 100 nM | 100 to 1000 nM | 100 to 1000 nM | 0.1 to 1 nM | 100 to 1000 nM | 
5 | 1 to 5 nM | 1 to 5 nM | COc1c(F)cccc1Nc1c2[nH]c3c1C(=O)NC[C@@H]3CCCCOCCOc1cnccc1-2 [Compound 115] | > 10 µM | 10 to 100 nM | 100 to 1000 nM | 100 to 1000 nM | 0.1 to 1 nM | 10 to 100 nM | 
6 |  |  | (13E)-23-[(3-Fluoro-2-methoxyphenyl)amino]-8,11-dioxa-5,18,22-tniazatetracyclo[18.2.1.0^2,7.0^16′2]tricosa-1(23),2,4,6,13,20-hexaen-19-one |  |  |  |  |  |  | ring closure, isolated yield [1, 3]: 16%
7 |  |  | (13Z)-23-[(3-fluoro-2-methoxyphenyl)amino]-8,11-dioxa-5,18,22-triazatetracyclo[18.2.10^2,7.0^16,21]tricosa-1(23),2,4,6,13,20-hexaen-19-one |  |  |  |  |  |  | ring closure, isolated yield [1, 3]: 4%
8 |  |  | (19E)-28-[(3-Fluoro-2-methoxyphenyl)amino]-3,22-dioxa-6,11,15-triazapentacyclo[21.3.1^10,13.0^4,9.0^12,17]octacosa-1(27),4,6,8,10(28),12,19,23,25-nonaen-14-one |  |  |  |  |  |  | ring closure, yield after HPLC (rcm bond, 16-membered ring, Hoveyda-Grubbs II (10 mol%), DCM, 3.6 mM): 20%

Row | Molecule | EC50 (EGFR (D770_N771insNPG)) | EC50 (EGFR (WT)) | CC50 at 3 days [2] | CC50 (Ba/F3 (D770_N771insSVD)) | CC50 (Ba/F3 (L858R + T790M)) | CC50 (Ba/F3 (EGFRwt)) | CC50 (Ba/F3 (A767_dupASV)) | CC50 (Ba/F3 (H773_V774insSVD)) | also measured
9 | COc1c(F)cccc1Nc1c2[nH]c3c1C(=O)NCC3C/C=C\COCCOc1cnccc1-2 (stereo not drawn) [Compound 104, (13Z)-23-[(3-fluoro-2-methoxyphenyl)amino]-8,11-dioxa-5,18,22-triazatetracyclo[18.2.10^2,7.0^16,21]tricosa-1(23),2,4,6,13,20-hexaen-19-one] | ≤ 1 nM | 1 to 5 nM | > 10 µM | 10 to 100 nM | 100 to 1000 nM | 100 to 1000 nM | 0.1 to 1 nM | 100 to 1000 nM | 
